Reference: US8410144B2, “Substituted indolo-pyridinone compounds” (ArQule, Inc., priority 2009, dated 2013)

Assays:
[1] = tested on: KATO III; experiment: MTS assay, KATO III cells; format: cell-based; details: Homo sapiens, 72 hours, read-out: KATO III, MTS cell kill % inhibition
Method in brief: (§1)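 First, seed 3000 cells per well in low-serum (1% FBS) DMEM and culture 18 h. Next, add compounds prepared at 300× in DMSO and diluted 1:40 in DMEM; incubate 72 h. Finally, add MTS/PMS for 4 h and measure absorbance at 492 nm.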

[2] = tested on: MDA-MB-231; experiment: MTS assay, MDA-MB-231 cells; format: cell-based; details: Homo sapiens, 72 hours, read-out: MDA-MB-231, MTS cell kill % inhibition
Method in brief: as §1

[3] = molecular target: IGF-1R (Homo sapiens, UniProt P08069); experiment: IGFR1 activity assay (ELISA); format: biochemical; details: read-out: IGF-1R, PCT INH (30 μM), ELISA
Method in brief: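 IGF1R (0.33 ng/μL final) phosphorylating Pyk-2 (0.05 ng/μL final) in buffer with 12.5 μM ATP, 10 mM MgCl2, 1 h room temperature. Product captured on streptavidin plates, detected with anti-phosphotyrosine and alkaline phosphatase secondary antibody, Attophos fluorescent readout.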

[4] = tested on: DLD-1; experiment: MTS assay, DLD-1 cells; format: cell-based; details: Homo sapiens, 72 hours, read-out: DLD-1, MTS cell kill % inhibition
Method in brief: as §1

[5] = tested on: NCI-H1299; experiment: MTS assay, NCI-H1299 cells; format: cell-based; details: Homo sapiens, 72 hours, read-out: NCI-H1299, MTS cell kill % inhibition
Method in brief: as §1

Sequence of IGF-1R (P08069 31-1367): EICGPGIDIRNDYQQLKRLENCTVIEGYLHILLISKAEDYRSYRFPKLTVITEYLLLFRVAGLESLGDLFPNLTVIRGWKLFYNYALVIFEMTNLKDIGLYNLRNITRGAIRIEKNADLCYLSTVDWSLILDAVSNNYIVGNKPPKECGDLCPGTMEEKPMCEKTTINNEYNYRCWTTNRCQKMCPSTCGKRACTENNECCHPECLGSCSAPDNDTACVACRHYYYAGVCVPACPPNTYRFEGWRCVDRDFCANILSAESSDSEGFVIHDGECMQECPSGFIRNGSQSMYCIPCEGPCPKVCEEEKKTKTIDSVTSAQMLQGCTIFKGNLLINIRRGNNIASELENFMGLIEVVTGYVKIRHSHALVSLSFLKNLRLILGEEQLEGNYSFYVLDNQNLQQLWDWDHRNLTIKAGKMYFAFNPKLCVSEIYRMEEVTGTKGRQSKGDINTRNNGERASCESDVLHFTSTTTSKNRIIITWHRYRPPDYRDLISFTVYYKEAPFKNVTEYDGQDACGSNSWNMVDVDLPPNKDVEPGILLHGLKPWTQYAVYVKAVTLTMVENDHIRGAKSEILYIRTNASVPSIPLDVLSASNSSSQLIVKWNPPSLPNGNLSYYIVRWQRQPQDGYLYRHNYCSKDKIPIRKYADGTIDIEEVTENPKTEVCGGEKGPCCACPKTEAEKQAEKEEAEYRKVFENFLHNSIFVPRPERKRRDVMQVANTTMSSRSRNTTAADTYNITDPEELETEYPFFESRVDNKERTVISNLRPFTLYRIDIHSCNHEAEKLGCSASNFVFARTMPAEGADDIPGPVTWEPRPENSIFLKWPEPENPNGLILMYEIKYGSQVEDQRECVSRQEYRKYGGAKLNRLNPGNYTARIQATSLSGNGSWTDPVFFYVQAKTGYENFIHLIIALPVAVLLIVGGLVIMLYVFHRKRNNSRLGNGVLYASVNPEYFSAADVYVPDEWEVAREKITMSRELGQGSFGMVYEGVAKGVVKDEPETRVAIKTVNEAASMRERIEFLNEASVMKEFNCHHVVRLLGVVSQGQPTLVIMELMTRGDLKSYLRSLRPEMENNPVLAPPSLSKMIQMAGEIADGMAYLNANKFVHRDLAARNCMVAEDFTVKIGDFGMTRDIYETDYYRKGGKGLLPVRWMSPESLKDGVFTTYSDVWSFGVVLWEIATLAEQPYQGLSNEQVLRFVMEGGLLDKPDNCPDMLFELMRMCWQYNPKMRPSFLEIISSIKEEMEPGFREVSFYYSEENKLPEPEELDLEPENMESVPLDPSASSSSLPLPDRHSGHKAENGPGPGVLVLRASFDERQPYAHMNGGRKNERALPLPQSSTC

Row | SMILES | inhibition at 10 µM [1] [%] | inhibition at 10 µM [2] [%] | inhibition at 30 µM [3] [%] | melting point [°C] | inhibition at 10 µM [4] [%] | inhibition at 10 µM [5] [%]
1 | O=c1[nH]cccc1-c1[nH]c2ccccc2c1-c1ccccc1 [Compound 84, 3-(3-phenyl-1H-indol-2-yl)pyridin-2(1H)-one] | 80 to 100 | 50 to 79 | 80 to 100 | 240 to 242 | 50 to 79 | 50 to 79
2 | CCN(CC)CCCNC(=O)c1ccc2[nH]c(-c3ccc[nH]c3=O)c(-c3ccccc3)c2c1 [Compound 2, N-[3-(diethylamino)propyl]-2-(2-oxo-1,2-dihydropyridin-3-yl)-3-phenyl-1H-indole-5-carboxamide] | 80 to 100 | 50 to 79 | 80 to 100 | 190 to 198 | 50 to 79 | 50 to 79
3 | O=C(NCCCN1CCOCC1)c1ccc2[nH]c(-c3ccc[nH]c3=O)c(-c3ccc(Oc4ccccc4)cc3)c2c1 [Compound 57, N-(3-morpholin-4-ylpropyl)-2-(2-oxo-1,2-dihydropyridin-3-yl)-3-(4-phenoxyphenyl)-1H-indole-5-carboxamide] | 80 to 100 | 80 to 100 | 80 to 100 | 121 to 123 | 80 to 100 | 80 to 100
4 | O=C(NCCOc1ccccc1)c1ccc2[nH]c(-c3ccc[nH]c3=O)c(-c3ccc(-c4ccccc4)cc3)c2c1 [Compound 51, 3-biphenyl-4-yl-2-(2-oxo-1,2-dihydropyridin-3-yl)-N-(2-phenoxyethyl)-1H-indole-5-carboxamide] | < 50 | 50 to 79 | < 50 | 147 to 153 | < 50 | < 50
5 | CN(C)CCCNC(=O)c1ccc2[nH]c(-c3ccc[nH]c3=O)c(-c3ccccc3)c2c1 [Compound 30, N-[3-(dimethylamino)propyl]-2-(2-oxo-1,2-dihydropyridin-3-yl)-3-phenyl-1H-indole-5-carboxamide] | 80 to 100 | 80 to 100 | 80 to 100 | 143 to 145 | 80 to 100 | 80 to 100
6 | O=c1[nH]cccc1-c1[nH]c2ccccc2c1C1CCN(Cc2cccc3ccccc23)CC1 [Compound 88, 3-{3-[1-(1-naphthylmethyl)piperidin-4-yl]-1H-indol-2-yl}pyridin-2(1H)-one] | < 50 | 80 to 100 | < 50 | 205 to 206 | 80 to 100 | < 50
7 | O=C(c1ccc2[nH]c(-c3ccc[nH]c3=O)c(-c3ccc(-c4ccccc4)cc3)c2c1)N1CCN(c2cnccn2)CC1 [Compound 45, 3-{3-biphenyl-4-yl-5-[(4-pyrazin-2-ylpiperazin-1-yl)carbonyl]-1H-indol-2-yl}pyridin-2(1H)-one] | 80 to 100 | 80 to 100 | 50 to 79 | 289 to 296 | 50 to 79 | 80 to 100
8 | O=C(NCCCN1CCOCC1)c1ccc2[nH]c(-c3ccc[nH]c3=O)c(-c3ccc(Cl)c(Cl)c3)c2c1 [Compound 59, 3-(3,4-dichlorophenyl)-N-(3-morpholin-4-ylpropyl)-2-(2-oxo-1,2-dihydropyridin-3-yl)-1H-indole-5-carboxamide] | 80 to 100 | < 50 | 50 to 79 | 135 to 138 | 50 to 79 | 50 to 79
9 | O=C(Nc1ccccc1Cl)c1ccc2[nH]c(-c3ccc[nH]c3=O)c(-c3ccccc3)c2c1 [Compound 12, N-(2-chlorophenyl)-2-(2-oxo-1,2-dihydropyridin-3-yl)-3-phenyl-1H-indole-5-carboxamide] | 80 to 100 | 50 to 79 | < 50 | > 300 | 80 to 100 | 80 to 100
10 | O=C(c1ccc2[nH]c(-c3ccc[nH]c3=O)c(-c3ccc(-c4ccccc4)cc3)c2c1)N1CCCCC1 [Compound 38, 3-[3-biphenyl-4-yl-5-(piperidin-1-ylcarbonyl)-1H-indol-2-yl]pyridin-2(1H)-one] | 80 to 100 | 80 to 100 | < 50 | 170 to 182 | 80 to 100 | 80 to 100
11 | Cc1ccc(-c2c(-c3ccc[nH]c3=O)[nH]c3ccc(C(=O)NCCCN4CCOCC4)cc23)cc1 [Compound 72, 3-(4-methylphenyl)-N-(3-morpholin-4-ylpropyl)-2-(2-oxo-1,2-dihydropyridin-3-yl)-1H-indole-5-carboxamide] | 80 to 100 | < 50 | 80 to 100 | 152 to 154 | 50 to 79 | 80 to 100
12 | CN(Cc1cccnc1)C(=O)c1ccc2[nH]c(-c3ccc[nH]c3=O)c(-c3ccc(-c4ccccc4)cc3)c2c1 [Compound 33, 3-biphenyl-4-yl-N-methyl-2-(2-oxo-1,2-dihydropyridin-3-yl)-N-(pyridin-3-ylmethyl)-1H-indole-5-carboxamide] | 80 to 100 | 80 to 100 | < 50 | 92 to 97 | 80 to 100 | 80 to 100
13 | O=C(c1ccc2[nH]c(-c3ccc[nH]c3=O)c(-c3ccccc3)c2c1)N1CCCCC1 [Compound 17, 3-[3-phenyl-5-(piperidin-1-ylcarbonyl)-1H-indol-2-yl]pyridin-2(1H)-one] | 80 to 100 | < 50 | 80 to 100 | 182 to 186 | 50 to 79 | 80 to 100
14 | CN(CCc1ccccc1)C(=O)c1ccc2[nH]c(-c3ccc[nH]c3=O)c(-c3ccc(-c4ccccc4)cc3)c2c1 [Compound 43, 3-biphenyl-4-yl-N-methyl-2-(2-oxo-1,2-dihydropyridin-3-yl)-N-(2-phenylethyl)-1H-indole-5-carboxamide] | 50 to 79 | < 50 | < 50 | 136 to 141 | 50 to 79 | 50 to 79
15 | CCOc1ccc(-c2c(-c3ccc[nH]c3=O)[nH]c3ccc(C(=O)NCCCN4CCOCC4)cc23)cc1 [Compound 79, 3-(4-ethoxyphenyl)-N-(3-morpholin-4-ylpropyl)-2-(2-oxo-1,2-dihydropyridin-3-yl)-1H-indole-5-carboxamide] | 80 to 100 | 80 to 100 | 80 to 100 | 143 to 145 | 80 to 100 | 80 to 100
16 | O=C(NCc1ccccn1)c1ccc2[nH]c(-c3ccc[nH]c3=O)c(-c3ccc(-c4ccccc4)cc3)c2c1 [Compound 42, 3-biphenyl-4-yl-2-(2-oxo-1,2-dihydropyridin-3-yl)-N-(pyridin-2-ylmethyl)-1H-indole-5-carboxamide] | 80 to 100 | 80 to 100 | < 50 | 123 to 127 | 80 to 100 | 80 to 100
17 | CC(C)Oc1ccc(-c2c(-c3ccc[nH]c3=O)[nH]c3ccc(C(=O)NCCCN4CCOCC4)cc23)cc1 [Compound 66, 3-(4-isopropoxyphenyl)-N-(3-morpholin-4-ylpropyl)-2-(2-oxo-1,2-dihydropyridin-3-yl)-1H-indole-5-carboxamide] | 80 to 100 | 80 to 100 | 80 to 100 | 140 to 143 | 50 to 79 | 80 to 100
18 | COc1ccc(NC(=O)c2ccc3[nH]c(-c4ccc[nH]c4=O)c(-c4ccccc4)c3c2)cc1 [Compound 29, N-(4-methoxyphenyl)-2-(2-oxo-1,2-dihydropyridin-3-yl)-3-phenyl-1H-indole-5-carboxamide] | 80 to 100 | < 50 | 80 to 100 | 279 to 283 | 50 to 79 | 80 to 100
19 | O=C(NCCCN1CCOCC1)c1ccc2[nH]c(-c3ccc[nH]c3=O)c(-c3ccccc3)c2c1 [Compound 1, N-(3-morpholin-4-ylpropyl)-2-(2-oxo-1,2-dihydropyridin-3-yl)-3-phenyl-1H-indole-5-carboxamide] | 80 to 100 | 80 to 100 | 80 to 100 | 238 to 244 | 80 to 100 | 80 to 100
20 | O=C(c1ccc2[nH]c(-c3ccc[nH]c3=O)c(-c3ccccc3)c2c1)N1CCc2ccccc2C1 [Compound 28, 3-[5-(3,4-dihydroisoquinolin-2(1H)-ylcarbonyl)-3-phenyl-1H-indol-2-yl]pyridin-2(1H)-one] | 80 to 100 | – | 80 to 100 | 171 to 177 | 80 to 100 | 80 to 100
21 | O=C(NCCCN1CCOCC1)c1ccc2[nH]c(-c3ccc[nH]c3=O)cc2c1 [Compound 55, N-(3-morpholin-4-ylpropyl)-2-(2-oxo-1,2-dihydropyridin-3-yl)-1H-indole-5-carboxamide] | < 50 | < 50 | 80 to 100 | 130 to 132 | – | –
